Paper PMC11539071, “Optimization of Biocatalytic Rhododendrol Production from Biogenic Rhododendrol Glycosides” (ACS Sustainable Chemistry & Engineering, 2024)

Columns and labels:
[1] = biological target: T1, β-glucosidase from almonds; assay: initial rates by HPLC, product inhibition fit; assay type: biochemical, Prunus dulcis; settings: competitive; substrate betuloside at saturating level; 0.1 M phosphate buffer pH 6, 40 °C
T1 construct: gene emulsin; native commercial enzyme preparation from almonds (Sigma-Aldrich)
Description: initial rates by HPLC, product inhibition fit on β-glucosidase from almonds

[2] = test system: T1, β-glucosidase from almonds; assay: initial rates by HPLC of rhododendrol, Michaelis-Menten fit; assay type: biochemical, Prunus dulcis; settings: 0.1 M phosphate buffer pH 6, 40 °C; substrate from crude glycoside mixture containing apiosylrhododendrin
Description: initial rates by HPLC of rhododendrol, Michaelis-Menten fit on β-glucosidase from almonds

Ki [1] [mM] | Km [2] [mM] | SMILES
65.5 ± 17.2 | – | OC[C@H]1OC(O)[C@H](O)[C@@H](O)[C@@H]1O (stereo partly drawn) [glucose]
7.13 ± 2.2 | – | CC(O)CCc1ccc(O)cc1 (racemic) [rhododendrol]
– | 26.7 ± 3.76 | C[C@H](CCc1ccc(O)cc1)O[C@@H]1O[C@H](CO)[C@@H](O)[C@H](O)[C@H]1O (mixture of isomers) [betuloside]
